Data as given in patent publication US20220110889A1, “R-KETAMINE AND DERIVATIVE THEREOF AS PROPHYLACTIC OR THERAPEUTIC AGENT FOR NEURODEV[…]” (National University Corporation Chiba University, priority 2018, published 2022).
“Also recorded” adds a separate entry of the source.

Experiments:
[1] = system: mice treated with PCP serving as animal models of schizophrenia; experiment: Novel object recognition test (NORT) in mice repeatedly administered with PCP (animal model of schizophrenia); format: in vivo; details: for cognitive function in NORT (ratio of time to find the novel object relative to time to find the two objects): male ICR mice, PCP 10 mg/kg s.c. for ten days, test drug 10 mg/kg intraperitoneally on days 15, 18, 22, 25, vs PCP+physiological saline
Experimental: The creation of model animals of a cognitive impairment of schizophrenia and drug administration were specifically carried out as described below (FIG. 1). For the mice, male ICR mice (8 weeks old, Japan SLC Inc., Hamamatsu, Japan) were purchased. The mice were allowed to freely ingest water and feed. On the first day of testing, physiological saline (10 mL/kg bodyweight) or PCP (10 mg/kg bodyweight) was subcutaneously administered once a day for ten days (from the first day of testing to the fifth day of testing and from the eighth day of testing to the twelfth day of testing: no administration on the sixth and seventh days of testing). On the fifteenth day of testing, the eighteenth day of testing, the twenty-second day of testing, and the twenty-fifth day of testing, R-ketamine (10 mg/kg bodyweight) or a medium (10 mL/kg of physiological saline) was intraperitoneally administered. […] The novel object recognition test (NORT: novel object recognition test) is a system used to evaluate cognitive functions. The NORT was carried out according to a previous report (Hashimoto et al. Eur. J. Pharmacol. 2005; 519 (1-2): 114-117). From the twenty-sixth day to the twenty-eighth day of testing, acclimation to a NORT apparatus (50.8×50.8×25.4 cm) was performed for 10 minutes per day. On the twenty-ninth day of testing, two objects of different shapes and colors were placed 35.5 cm apart in the NORT apparatus, and an amount of time to find each object was measured. A training session (10 minutes) was carried out, and on the following day, the thirtieth day of testing, a test session (5 minutes) was carried out (FIG. 1). In the test session on the following day, one object was replaced with another, new object (novel object). An amount of time to find the two objects was measured, and in the test session on the second day, a ratio of an amount of time to find the novel object relative to the amount of time to find the two objects was calculated. On the day following the end of behavior testing, a brain region (frontal cortex, hippocampus) of the mice was extracted, and the brain tissue was stored in a freezer. Brain-derived neurotrophic factor (BDNF: brain-derived neurotrophic factor); TrkB, which is a BDNF receptor; and phosphorylated TrkB in the brain tissue were quantified by western blotting (FIG. 3).
The effect of S-ketamine was examined according to the method above. On the first day of testing, physiological saline (10 mL/kg bodyweight) or PCP (10 mg/kg bodyweight) was subcutaneously administered once a day for ten days (from the first day of testing to the fifth day of testing and from the eighth day of testing to the twelfth day of testing: no administration on the sixth and seventh days of testing). […]

[2] = animal testing, non-patent literature 12 to 14; cited from earlier work
[3] = system: baby mice (male) born from pregnant mice administered with Poly (I:C); experiment: Novel object recognition test in offspring of pregnant mice administered with Poly (I:C) (maternal immune activation model); format: in vivo; details: male offspring of Poly (I:C) 5 mg/kg dams; R-ketamine 10 mg/kg i.p. twice a week, four weeks (weeks 4 to 8 after birth); NORT at 10 weeks old or thereafter
Experimental: The creation of model animals of a neurodevelopmental disorder such as schizophrenia or autism spectrum disorder (models of maternal immune activation) and drug administration were specifically carried out as described below (FIG. 5). For the mice, pregnant ddY mice (8 to 10 weeks old, Japan SLC Inc., Hamamatsu, Japan) were purchased. The mice were allowed to freely ingest water and feed. Physiological saline (5 mL/kg bodyweight) or Poly (I:C) (Sigma-Aldrich: 5 mg/kg bodyweight) was intraperitoneally administered for six days, from the twelfth day of pregnancy to the seventeenth day of pregnancy, according to previous reports (Han M, et al. Sci Rep 2016; 6:36087. Matsuura A, et al. Sci Rep 2018; 8: 2158. Ma M, et al. Proc Natl Acad Sci USA 2019; 116: 7083-7088). After birth, the mice were raised normally, and at 3 weeks old, only the male mice were weaned and raised. R-ketamine (10 mg/kg bodyweight) or a medium (10 mL/kg of physiological saline) was intraperitoneally administered twice a week for four weeks, from the fourth week after birth to the eighth week after birth. […] From 8 weeks old, these were raised normally. The above NORT was carried out at 10 weeks old or thereafter.
Statistical analysis was carried out by performing a one-way analysis of variance (one-way ANOVA) and subsequently performing Fisher's LSD (Fisher's LSD). […]

BDNF-TrkB system = experiment: Western blotting of BDNF, TrkB and phosphorylated TrkB in frontal cortex and hippocampus of PCP-treated mice; format: in vivo; details: R-ketamine 10 mg/kg i.p., brain extracted after behavior testing
Experimental: The creation of model animals of a cognitive impairment of schizophrenia and drug administration were specifically carried out as described below (FIG. 1). For the mice, male ICR mice (8 weeks old, Japan SLC Inc., Hamamatsu, Japan) were purchased. The mice were allowed to freely ingest water and feed. On the first day of testing, physiological saline (10 mL/kg bodyweight) or PCP (10 mg/kg bodyweight) was subcutaneously administered once a day for ten days (from the first day of testing to the fifth day of testing and from the eighth day of testing to the twelfth day of testing: no administration on the sixth and seventh days of testing). On the fifteenth day of testing, the eighteenth day of testing, the twenty-second day of testing, and the twenty-fifth day of testing, R-ketamine (10 mg/kg bodyweight) or a medium (10 mL/kg of physiological saline) was intraperitoneally administered. […] On the day following the end of behavior testing, a brain region (frontal cortex, hippocampus) of the mice was extracted, and the brain tissue was stored in a freezer. Brain-derived neurotrophic factor (BDNF: brain-derived neurotrophic factor); TrkB, which is a BDNF receptor; and phosphorylated TrkB in the brain tissue were quantified by western blotting (FIG. 3). […]

NMDA receptors = details: non-patent literature 11; cited from earlier work

Structure (SMILES) | effect of ANA-12 pretreatment on the therapeutic effect of R-ketamine in NORT ([1]; PCP-treated mice, ANA-12 0.5 mg/kg i.p. 30 minutes before R-ketamine 10 mg/kg i.p.) | side effects (such as drug dependency and an action of inducing a mental illness) compared to S-ketamine [2] | cognitive function in NORT, TrkB role study ([1]; PCP-treated mice, solvent 30 minutes before R-ketamine 10 mg/kg i.p. on days 15, 18, 22, 25) | cognitive function in NORT (ratio of time to find the novel object relative to time to find the two objects) [1] | cognitive impairment at maturity in NORT [3] | BDNF protein expression in the frontal cortex and the hippocampus (BDNF-TrkB system) | ratio p-TrkB/TrkB in the frontal cortex and the hippocampus (BDNF-TrkB system) | affinity toward NMDA receptors relative to R-ketamine (NMDA receptors)
O=C(Nc1ccccc1C(=O)NC1CCCCNC1=O)c1cc2ccccc2s1 (stereo not drawn) [ANA-12, reference compound] | suppressed the therapeutic effect of R-ketamine |  |  |  |  |  |  | 
CN[C@@]1(c2ccccc2Cl)CCCCC1=O [R-ketamine] |  | fewer side effects | significantly improved the reduced cognitive function due to PCP administration | significantly improved the reduced cognitive function due to PCP administration; also recorded: exhibits a therapeutic effect | suppressed a cognitive impairment at maturity | significantly improved | significantly improved | 
CN[C@]1(c2ccccc2Cl)CCCCC1=O [S-ketamine, reference compound] |  |  |  | did not improve the reduced cognitive function due to PCP administration; also recorded: exhibited no therapeutic effect |  |  |  | stronger affinity toward NMDA receptors; also recorded: about four times higher than R-ketamine
